From article PMC6471128, “Preparation and Identification of ACE Inhibitory Peptides from the Marine Macroalga Ulva intestinalis” (Marine Drugs, 2019)
Like-named read-outs stand apart in the source and are kept apart here. Ends that are not written are not given here.

Legend:
[1] = system: ACE; details: cited from earlier work
Excerpt: ACE inhibitors (ACEIs) inhibit ACE activity and reduce blood pressure by inhibiting the synthesis of angiotensin II or promoting the release of bradykinin. Although ACEIs, such as enalapril, captopril, and lisinopril, are widely used in hypertension treatments, synthetic ACEIs have a series of negative effects, including hypotension, cough, increased potassium levels and, angioedema. Consequently, the development of safe and effective antihypertensive drugs is important, and due to antihypertensive effects and safety, there has been an increasing interest in food-derived ACE inhibito ...

[2] = molecular target: T1, ACE (from rabbit lung) (Oryctolagus cuniculus, UniProt P12822); assay: In vitro simulated gastrointestinal digestion (pepsin, then trypsin) followed by ACE inhibitory activity assay; assay type: in vitro ADME; details: for stability for pepsin and trypsin digestion: in vitro digestion, read-out ACE inhibitory activity
T1 construct: ACE (from rabbit lung); purchased Sigma Chemical Co. (St. Louis, MO, USA); host or cells: rabbit lung tissue
T1 sequence (P12822 34-1310): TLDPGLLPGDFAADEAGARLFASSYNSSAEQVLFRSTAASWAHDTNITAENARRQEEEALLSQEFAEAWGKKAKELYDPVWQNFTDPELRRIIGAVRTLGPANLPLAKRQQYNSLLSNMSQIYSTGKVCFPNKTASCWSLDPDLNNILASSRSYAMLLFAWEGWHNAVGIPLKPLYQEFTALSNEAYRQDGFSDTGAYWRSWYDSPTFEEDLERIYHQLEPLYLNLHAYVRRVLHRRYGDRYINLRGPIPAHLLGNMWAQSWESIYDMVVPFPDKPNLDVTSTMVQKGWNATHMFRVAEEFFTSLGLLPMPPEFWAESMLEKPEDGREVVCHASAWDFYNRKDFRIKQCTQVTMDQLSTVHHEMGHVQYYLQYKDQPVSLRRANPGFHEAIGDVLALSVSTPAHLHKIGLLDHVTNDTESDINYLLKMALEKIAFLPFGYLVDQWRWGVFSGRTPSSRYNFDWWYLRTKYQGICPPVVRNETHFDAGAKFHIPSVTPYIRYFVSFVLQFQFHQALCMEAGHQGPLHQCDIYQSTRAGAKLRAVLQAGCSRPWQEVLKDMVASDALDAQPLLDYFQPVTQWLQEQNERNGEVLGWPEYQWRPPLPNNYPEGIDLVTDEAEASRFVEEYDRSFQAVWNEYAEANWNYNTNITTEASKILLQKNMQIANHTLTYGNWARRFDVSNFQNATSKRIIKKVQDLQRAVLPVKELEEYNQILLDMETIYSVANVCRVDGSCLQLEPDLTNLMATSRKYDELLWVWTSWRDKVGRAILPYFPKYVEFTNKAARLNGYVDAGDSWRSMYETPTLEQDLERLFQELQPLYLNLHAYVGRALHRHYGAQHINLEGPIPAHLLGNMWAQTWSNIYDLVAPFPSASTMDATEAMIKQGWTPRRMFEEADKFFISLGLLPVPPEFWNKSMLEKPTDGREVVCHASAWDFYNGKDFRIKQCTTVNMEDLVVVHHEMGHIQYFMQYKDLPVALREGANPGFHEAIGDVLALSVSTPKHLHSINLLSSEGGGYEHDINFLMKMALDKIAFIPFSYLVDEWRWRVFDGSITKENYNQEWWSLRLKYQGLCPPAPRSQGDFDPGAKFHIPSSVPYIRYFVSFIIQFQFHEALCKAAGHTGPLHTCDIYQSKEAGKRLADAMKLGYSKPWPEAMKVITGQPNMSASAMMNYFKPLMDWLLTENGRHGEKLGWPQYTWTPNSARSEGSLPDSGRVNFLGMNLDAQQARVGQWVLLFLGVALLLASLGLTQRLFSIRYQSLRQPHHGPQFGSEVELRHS
Protocol: (§1) ACE inhibition was examined according to Shalaby et al. and Henda et al., with slight modifications. FAPGG and ACE were dissolved in 50 mM Tris-HCl (pH 7.5) containing 300 mM NaCl. A sample solution (40 μL) was mixed with 100 μL of 0.88 mM FAPGG solution, and the mixture was incubated at 37 °C for 5 min. To start the reaction, 60 μL of ACE solution (0.20 U/mL) was added; absorbance was measured at 340 nm and recorded every 1 min for 30 min using a SpectraMax 190 absorbance microplate reader (Molecular Devices, Sunnyvale, USA). The slope averaged over a linear interval of 10–30 min was taken as a measure of the ACE inhibitory activity. The degree of ACE inhibition was calculated according to the following equation: ACE inhibition rate (%) = [1 − (slope inhibitior/slope control)] × 100(2)
In vitro digestion was performed according to the method of Cing et.al. The purified peptide sample was mixed with 0.1 M phosphate buffer (pH 2.0) and pepsin (E/S 4%, w/w); the reaction was allowed to proceed for 2 h at 37 °C and stopped by heating at 100 °C for 10 min. Subsequently, the remaining suspension was adjusted to pH 8.0 with 5 M NaOH solution and further digested with trypsin (E/S 4%, w/w); the solution was incubated at 37 °C for 2 h and then heated at 100 °C for 10 min. The protein hydrolysate was centrifuged at 8000 rpm/min for 15 min, and the supernatant was assayed for ACE inhibitory activity.

[3] = molecular target: T1, ACE (from rabbit lung); assay: ACE inhibition and IC50 assay (FAPGG substrate); assay type: biochemical
Protocol: as §1
The activity of each sample was tested in triplicate. The IC50 value, the concentration of peptide required to reduce ACE activity by 50%, was determined by regression analysis of ACE inhibition (%) vs. peptide concentration.

[4] = molecular target: T2, Angiotensin I-converting enzyme (from rabbit lung) (rabbit) (UniProt P12822)
T2 sequence: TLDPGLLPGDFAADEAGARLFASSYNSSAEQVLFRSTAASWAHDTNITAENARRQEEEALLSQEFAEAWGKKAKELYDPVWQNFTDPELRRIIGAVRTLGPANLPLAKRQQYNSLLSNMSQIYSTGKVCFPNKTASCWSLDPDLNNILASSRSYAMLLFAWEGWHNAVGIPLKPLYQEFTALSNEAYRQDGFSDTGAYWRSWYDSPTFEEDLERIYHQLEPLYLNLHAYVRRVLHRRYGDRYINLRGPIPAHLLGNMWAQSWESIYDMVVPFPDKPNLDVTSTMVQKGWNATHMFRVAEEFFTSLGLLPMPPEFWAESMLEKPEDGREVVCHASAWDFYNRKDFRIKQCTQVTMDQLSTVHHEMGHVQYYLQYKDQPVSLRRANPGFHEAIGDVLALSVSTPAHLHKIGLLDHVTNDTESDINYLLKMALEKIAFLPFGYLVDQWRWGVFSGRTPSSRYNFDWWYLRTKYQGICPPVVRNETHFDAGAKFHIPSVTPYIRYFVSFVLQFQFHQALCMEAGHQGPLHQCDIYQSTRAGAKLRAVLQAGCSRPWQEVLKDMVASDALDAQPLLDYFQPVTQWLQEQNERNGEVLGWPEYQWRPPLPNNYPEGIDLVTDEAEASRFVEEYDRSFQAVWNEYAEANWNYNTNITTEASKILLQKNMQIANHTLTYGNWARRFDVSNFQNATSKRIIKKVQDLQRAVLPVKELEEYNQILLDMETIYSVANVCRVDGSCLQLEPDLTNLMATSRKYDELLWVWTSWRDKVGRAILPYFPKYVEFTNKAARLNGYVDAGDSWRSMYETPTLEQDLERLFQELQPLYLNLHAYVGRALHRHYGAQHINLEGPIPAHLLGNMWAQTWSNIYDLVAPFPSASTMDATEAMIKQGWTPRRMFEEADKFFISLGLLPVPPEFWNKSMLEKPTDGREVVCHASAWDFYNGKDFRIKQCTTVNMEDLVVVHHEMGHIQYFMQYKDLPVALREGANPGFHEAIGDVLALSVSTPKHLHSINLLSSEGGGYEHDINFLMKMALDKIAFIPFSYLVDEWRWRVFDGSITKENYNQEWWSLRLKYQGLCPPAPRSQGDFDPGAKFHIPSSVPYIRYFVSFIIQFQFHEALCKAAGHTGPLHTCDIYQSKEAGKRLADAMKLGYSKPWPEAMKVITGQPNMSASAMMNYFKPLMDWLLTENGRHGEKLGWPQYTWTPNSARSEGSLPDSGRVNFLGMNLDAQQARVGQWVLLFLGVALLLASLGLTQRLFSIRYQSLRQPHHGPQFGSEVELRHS

[5] = molecular target: T2, Angiotensin I-converting enzyme (from rabbit lung) (rabbit); remark: listed apart in the source
[6] = peptides purified from Ulva rigida protein hydrolysate
[7] = peptides from Porphyra yezoensis
[8] = peptides from Undaria pinnatifida
[9] = pH 2, synthetic peptide at 0.2 mg/mL, after pepsin hydrolysis for 2 h (0.1 M phosphate buffer pH 2.0, E/S 4% w/w, 37 °C)
[10] = synthetic peptide at 0.2 mg/mL, Control (no digestion)
[11] = synthetic peptide at 0.2 mg/mL, pepsin hydrolysis for 2 h (pH 2.0, 37 °C) followed by trypsin hydrolysis for 2 h (pH 8.0, 37 °C), E/S 4% w/w each
[12] = peptides identified in fraction C2-8, FAPGG 0.88 mM, ACE 0.20 U/mL, 50 mM Tris-HCl pH 7.5, 300 mM NaCl, 37 °C, absorbance 340 nm, tested in triplicate
[13] = purified ACE inhibitors, same values as in μM given in mg/mL

Ala-Phe-Leu
IC50 [1, 6]: 65.8 µM

Leu-Arg-Tyr
IC50 [1, 7]: 5.06 µM

Lys-Phe-Tyr-Gly
IC50 [1, 8]: 90.5 µM

Tyr-Lys-Tyr-Tyr
IC50 [1, 8]: 64.2 µM

Tyr-Asn-Lys-Leu
IC50 [1, 8]: 21 µM

Ile-Tyr
IC50 [1, 7]: 2.69 µM

FGMPLDR [FGMPLDR, Phe-Gly-Met-Pro-Leu-Asp-Arg]
stability for pepsin and trypsin digestion [2]: good stability
inhibition at 200 µg/mL [2, 9]: 52.98 ± 0.19%
inhibition at 200 µg/mL [2, 10]: 50.07 ± 0.07%
inhibition at 200 µg/mL [2, 11]: 51.32 ± 0.02%
IC50 [3, 12]: 219 µM
IC50 [3, 13]: 219 µM

Ala-Lys-Tyr-Ser-Tyr
IC50 [1, 7]: 1.52 µM

MELVLR [MELVLR, Met-Glu-Leu-Val-Leu-Arg]
stability for pepsin and trypsin digestion [2]: good stability
inhibition at 200 µg/mL [2, 9]: 56.84 ± 0.04%
inhibition at 200 µg/mL [2, 10]: 59.92 ± 0.04%
inhibition at 200 µg/mL [2, 11]: 58.63 ± 0.13%
IC50 [3, 12]: 237 µM
IC50 [3, 13]: 236 µM

Gln-Val-Glu-Tyr
IC50 ([1]; peptide from hydrolyzed Gracilariopsis lemaneiformis): 474 µM

Met-Lys-Tyr
IC50 [1, 7]: 7.26 µM

Ala-Ile-Tyr-Lys
IC50 [1, 8]: 213 µM

Ile-Pro
IC50 [1, 6]: 87.6 µM

MELVLR [Met-Glu-Leu-Val-Leu-Arg]
ACE Inhibitory Activity (%) of the synthetic peptide at 0.2 mg/mL, after pepsin hydrolysis for 2 h [4]: 56.8%
ACE Inhibitory Activity (%) of the synthetic peptide at 0.2 mg/mL, after pepsin hydrolysis for 2 h followed by trypsin hydrolysis for 2 h [4]: 58.6%
ACE Inhibitory Activity (%) of the synthetic peptide at 0.2 mg/mL, control (not digested) [4]: 59.9%
IC50 of ACE inhibition (hydrolysis of FAPGG by ACE, absorbance at 340 nm, 37 °C, 50 mM Tris-HCl pH 7.5, 300 mM NaCl) [5]: 237 μM

FGMPLDR [Phe-Gly-Met-Pro-Leu-Asp-Arg]
ACE Inhibitory Activity (%) of the synthetic peptide at 0.2 mg/mL, after pepsin hydrolysis for 2 h [4]: 53%
ACE Inhibitory Activity (%) of the synthetic peptide at 0.2 mg/mL, after pepsin hydrolysis for 2 h followed by trypsin hydrolysis for 2 h [4]: 51.3%
ACE Inhibitory Activity (%) of the synthetic peptide at 0.2 mg/mL, control (not digested) [4]: 50.1%
IC50 of ACE inhibition (hydrolysis of FAPGG by ACE, absorbance at 340 nm, 37 °C, 50 mM Tris-HCl pH 7.5, 300 mM NaCl) [5]: 219 μM
